The subject of one experiment is collagen type I (CI). The experiment in a line: SPR binding of MMPs to immobilized CI, nonactivating buffer. On the set-up: species or system human. The method, then:
(§1) Sensor chip preparations and SPR measurements were performed using a BiacoreX device and the Bia-evaluation software (version 3.2; Biacore, Uppsala, Sweden). The pepsin-resistant triple-helical part of human fibrillar CI (100 μg/ml) in 10 mM acetate coupling buffer, pH 4.8, was immobilized to a dextran matrix-sensor chip at a flow rate of 5 μl/min, resulting in 5,500 resonance units from CI covalently linked via its primary amino groups. The control flow cell was prepared using the coupling buffer without CI. Surfaces were activated and blocked as described previously. Immediately after thawing, pro- and actMMP-2 and pro- and actMMP-9 were diluted to 100 to 250 nM in MMP activity buffer or in PBS and 0.05% (vol/vol) Tween 20. For SPR measurements, flow rates were 10 μl/min at 25°C, and equilibrium was typically reached after 30 to 60 s. The effects of (GPO)10, GAP, (POG)5, (GPP)10 and P33-42 on MMP-2 and MMP-9 binding to CI and their enzymatic activity were determined by adding the binding competitors to the (pro- and act)MMP-2 and MMP-9 solution in 10- to 150-fold molar excesses. Effects independent of MMP-2 and MMP-9 activity were monitored in the presence of Ro 28-2653 (1 μM) during SPR analysis. The gelatinase inhibitor Ro 28-2653 was a generous gift from H.-W. Krell (Roche, Grenzach-Wyhlen, Germany). Sensor surfaces were regenerated with 10 mM glycine, pH 2.3, for 1 min between runs, and sensor chips were used up to 25 times. Kinetic parameters were analyzed using the 1:1 binding model with drifting baseline and subtraction of the control flow cell binding from sensorgrams obtained with immobilized CI. Binding constants (Kd) were calculated from the association (ka) and dissociation rates (kd) obtained from individual binding curves at different concentrations. Individual drifts of the resonance signal were fitted locally, and χ^2 values of 0.2% to 1.0% of the maximum resonance value were considered good fits.
A general note: SPR reads the build-up and loss of mass on a sensor chip optically.

Experiment [1] in a line: In situ binding of MMPs to fibrotic liver sections. On the set-up: species or system human. The following applies: immunohistochemistry; 25 ng MMP, 30 min. The method, then: Human cirrhotic liver cryostat sections (5 μm) were air-dried and fixed in ice-cold acetone for 10 min. Tissue sections were rehydrated with PBS and incubated with 25 ng/50 μl of the respective proMMP and actMMP for 30 min or were left untreated. After thorough washing with PBS, antibodies specific for human MMP-9 (clone MAB911; R&D Systems, Minneapolis, MN, USA) and human MMP-2 (clone 75-7F7; Oncogene, Cambridge, MA, USA) were applied, and primary antibody binding was detected using the alkaline phosphatase-antialkaline phosphatase detection system (Dako, Hamburg, Germany). An irrelevant primary mouse antibody served as control. Nuclei were counterstained with Hemalaun, and slides were examined by standard light microscopy.

For the next experiment, the target named is T1, proMMP-2 / CI (Homo sapiens, UniProt P08253).
T1 construct: prodomain-containing proMMP-2 or proMMP-9; purchased Invitek
T1 sequence (P08253 30-660 limits assumed): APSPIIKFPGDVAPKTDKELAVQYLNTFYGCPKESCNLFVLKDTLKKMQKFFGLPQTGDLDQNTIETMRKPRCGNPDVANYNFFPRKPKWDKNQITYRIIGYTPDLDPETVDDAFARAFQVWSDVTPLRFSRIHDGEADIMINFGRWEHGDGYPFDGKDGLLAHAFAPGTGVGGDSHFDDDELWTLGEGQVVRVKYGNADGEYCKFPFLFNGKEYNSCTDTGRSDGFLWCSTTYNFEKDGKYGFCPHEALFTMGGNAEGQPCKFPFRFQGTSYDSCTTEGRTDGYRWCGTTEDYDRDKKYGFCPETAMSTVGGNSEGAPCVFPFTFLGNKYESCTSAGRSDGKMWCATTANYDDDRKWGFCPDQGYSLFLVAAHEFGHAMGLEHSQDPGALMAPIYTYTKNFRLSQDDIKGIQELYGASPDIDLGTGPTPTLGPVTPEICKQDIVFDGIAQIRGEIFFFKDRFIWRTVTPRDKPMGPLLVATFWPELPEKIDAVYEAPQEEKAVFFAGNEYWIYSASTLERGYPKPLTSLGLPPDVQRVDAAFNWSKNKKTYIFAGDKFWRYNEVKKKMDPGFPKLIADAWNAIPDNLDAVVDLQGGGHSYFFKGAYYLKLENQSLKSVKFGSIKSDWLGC
The experiment is described as follows: SPR, competition of proMMP-2 binding to CI, MMP activity buffer with Ro 28-2653. The method, then: as §1

Experiment [2] concerns the target Col-3 module of the CBD of MMP-2. The conditions noted are these: ref [7]; cited from earlier work. The text has this:
Finally, we asked how (GPO)10 competes CBD-mediated binding of proMMP-2 to fibrillar collagen and thereby modulates binding as well as enzymatic activity and activation. We made use of the P33-42 peptide derived from the prodomain of MMP-2. […] Even at high molar ...

Experiment [3] concerns ProMMP-2. The experiment is described as follows: Substrate gel zymography of treated proMMP-2. The format is biochemical, human. The following applies: 50 ng proMMP-2, 2-h incubation at room temperature. The method, then:
Samples containing MMP-2 were diluted with zymogram sample buffer (Bio-Rad, Munich, Germany) and separated on homogeneous 10% SDS-PAGE gels containing 1 mg/ml (wt/vol) gelatine (Bio-Rad), washed with excess MMP activity buffer containing 2.5% (vol/vol) Triton X-100 to remove SDS, and incubated with MMP activity buffer for 24 h. Gels were stained with Coomassie Blue R-250. Gels showing proteolytic bands corresponding to proMMP-2 (72 kDa) or actMMP-2 (62 kDa) were scanned (Plustek, Norderstedt, Germany) and analyzed from inverted grayscale images.

The next experiment relates to MMP-9. The experiment in a line: Effect of P33-42 on MMP-9. The format is biochemical. The conditions noted are these: MMP devoid of prodomain-CBD interaction; data not shown. How it is done: (§2) Enzymatic activities of MMPs were studied spectrofluorimetrically by cleavage of fluorogenic substrates in MMP activity buffer within 2 to 5 h. For gelatinases 800 nM MCA-Pro-Leu-Gly-Leu-Dnp-Dap-Ala-Arg-NH2 (λex/em 328/393 nm; Bachem, Bubendorf, Switzerland) or 10 μg/ml DQ-gelatine were used, according to the method described by Knight et al. for collagenases 800 nM MCA-Pro-Cha-Gly-Nva-His-Ala-Dpa-NH2 (λex/em 280/360 nm; Anaspec, San José, CA, USA). In some experiments, proMMP-2 was fully activated in the presence of 1 mM APMA prior to the kinetic measurements. A quantity of 50 ng pro- or actMMP-2 alone or mixed with 10- to 150-fold molar excesses of (GPO)10, GAP, P33-42 or mixtures of (GPO)10 and P33-42, were added to CI-coated, BSA-coated (1 μg/well both) or uncoated wells containing 150 μl of the respective substrate solution. The peptide P33-42 was purchased from the Institute of Biochemistry (Humboldt-University, Berlin, Germany). The influence of CI on MMP-2 enzymatic activity against the quenched fluorescent substrate could be excluded. Background subtraction (measurement without MMPs) was applied to all curves. All experiments were performed with a fluorescence microplate reader (Molecular Devices, Sunnyvale, CA, USA) and black 96-well microtiter plates with a clear bottom (Greiner bio-one, Frickenhausen, Germany).

Another experiment concerns MMP-13. The experiment in a line: Effect of P33-42 on MMP-13. The format is biochemical. The conditions noted are these: MMP without CBD; data not shown. How it is done: as §2
In experiment [4] the test system is ProMMP-2. The experiment is described as follows: DQ-gelatine degradation assay with MMP-2. Type of experiment: biochemical, human. The conditions noted are these: for DQ-gelatine cleavage by proMMP-2: 5 h at 25°C. How it is done:
as §2

“Also recorded” adds a separate entry of the source.

Usually Kd stands for the free concentration of one partner at which half of the binding sites on the other are occupied at equilibrium, for simple one-to-one binding. In the case of “ActMMP-9: 86-kDa activated form of MMP-9”, in the experiment on collagen type I (CI) (nonactivating conditions), the “binding to CI relative to proMMP-9” value is given as “sevenfold less effectively”. Also, the Off rate in the experiment on collagen type I (CI) (without (GPO)10, MMP 100 nM, PBS, 0.05% Tween 20, 25°C, mean from at least three experiments) came to 0.76 s⁻¹. Moreover, the Kd on collagen type I (CI) (without (GPO)10, MMP 100 nM, PBS, 0.05% Tween 20, 25°C, mean ± SD, at least three experiments) amounted to 0.87 ± 0.39 µM. For the same substance, the “binding to liver sections” value in experiment [1] is “No significant binding”.

With “P33-42: MMP-2 prodomain-derived CBD-binding peptide (PIIKFPGDVA)”, the “competition with proMMP-2 binding to CI” value with proMMP-2 / CI (SPR, MMP activity buffer with Ro 28-2653) is on record as “competed with proMMP-2 binding to CI; also recorded: only slightly inhibited proMMP-2 binding to CI”. In the experiment with proMMP-2 / CI (high (up to 100-fold) molar excesses, 100-250 nM proMMP-2, 1 μM Ro 28-2653), the “increase of Kd of proMMP-2 binding to CI” value is recorded as “up to 50%”. Besides, the equilibrium dissociation constant (Kd) in experiment [2] was 1600 µM. Also, the “substrate zymography, prodomain-free actMMP-2 band” value in the experiment on ProMMP-2 [3] is reported as “did not occur”. Moreover, the “effect on MMP” value in the experiment with MMP-9 and with MMP-13 was “no effects” in each case. The entries for the “DQ-gelatine cleavage by proMMP-2” value in the experiment with ProMMP-2 [4] (50- to 100-fold molar excesses) and with ProMMP-2 [4] (150-fold molar excess) were “no activating effect but a slight inhibitory effect” and “more enhanced inhibitory effect”, respectively. Also, the proMMP-2 activation result with ProMMP-2 [4] (P33-42 alone, even at high molar excesses) is recorded as “did not activate proMMP-2; also recorded: did not affect proMMP-2 activation”. Also, in the experiment with ProMMP-2 [4] (equimolar mixture of (GPO)10 and P33-42, 150-fold molar excess), the “effect on inhibitory effect of (GPO)10 on MMP-2 activity” value is given as “the inhibitory effect of (GPO)10 on MMP-2 activity was diminished”. Further, the “effect on (GPO)10-mediated activation of proMMP-2” value in the experiment on ProMMP-2 [4] (equimolar mixtures of (GPO)10 and P33-42, 50- to 100-fold molar excesses) is on record as “prevented (GPO)10-mediated proMMP-2 activation; also recorded: drastically diminished the activating effect of (GPO)10 on proMMP-2; also recorded: blocked (GPO)10-mediated proMMP-2 activation”.

The values above are taken from PMC3024946, “Hydroxyproline-containing collagen analogs trigger the release and activation of collagen-sequestered proMMP-2 by competition with prodomain-derived peptide P33-42” (Fibrogenesis & Tissue Repair, 2011).
